Test results published in PubChem BioAssay AID1259407 (Chemical Carcinogenesis Research Information System (CCRIS), 2018).
Calls of active or inactive are those of the source. The rule behind the calls is not given here.

Tested on: CCRIS mutagenicity, Ames/micronucleus/aberration tests
Experiment: CCRIS mutagenicity studies

Measured: mutagenic call

O=C(O)C(=O)O
active: Test System: AMES SALMONELLA TYPHIMURIUM, Strain/Indicator: TA100, Metabolic Activation: NONE, Method: PREINCUBATION (11 HR GROWTH PERIOD FOR BACTERIA) active; positive | Test System: AMES SALMONELLA TYPHIMURIUM, Strain/Indicator: TA102, Metabolic Activation: NONE, Method: PREINCUBATION (5, 7 OR 11 HR GROWTH PERIOD FOR BACTERIA) active; positive
inactive: Test System: AMES SALMONELLA TYPHIMURIUM, Strain/Indicator: TA97, Metabolic Activation: NONE, Method: PREINCUBATION inactive; negative | Test System: AMES SALMONELLA TYPHIMURIUM, Strain/Indicator: TA97, Metabolic Activation: RAT, LIVER, S-9, PHENOBARBITAL AND 5,6-BENZOFLAVONE, Method: PREINCUBATION inactive; negative | Test System: AMES SALMONELLA TYPHIMURIUM, Strain/Indicator: TA97, Metabolic Activation: S-9, Method: PREINCUBATION inactive; negative | Test System: AMES SALMONELLA TYPHIMURIUM, Strain/Indicator: TA98, Metabolic Activation: NONE, Method: PREINCUBATION inactive; negative | Test System: AMES SALMONELLA TYPHIMURIUM, Strain/Indicator: TA98, Metabolic Activation: RAT, LIVER, S-9, PHENOBARBITAL AND 5,6-BENZOFLAVONE, Method: PREINCUBATION inactive; negative | Test System: AMES SALMONELLA TYPHIMURIUM, Strain/Indicator: TA98, Metabolic Activation: RAT, LIVER, S-9, SODIUM PHENOBARBITAL AND 5,6-BENZOFLAVONE, Method: PREINCUBATION inactive; negative | Test System: AMES SALMONELLA TYPHIMURIUM, Strain/Indicator: TA100, Metabolic Activation: NONE, Method: PREINCUBATION inactive; negative | Test System: AMES SALMONELLA TYPHIMURIUM, Strain/Indicator: TA100, Metabolic Activation: RAT, LIVER, S-9, PCB, Method: PREINCUBATION (11 HR GROWTH PERIOD FOR BACTERIA) inactive; negative | Test System: AMES SALMONELLA TYPHIMURIUM, Strain/Indicator: TA100, Metabolic Activation: RAT, LIVER, S-9, PHENOBARBITAL AND 5,6-BENZOFLAVONE, Method: PREINCUBATION inactive; negative | Test System: AMES SALMONELLA TYPHIMURIUM, Strain/Indicator: TA100, Metabolic Activation: RAT, LIVER, S-9, SODIUM PHENOBARBITAL AND 5,6-BENZOFLAVONE, Method: PREINCUBATION inactive; negative | Test System: AMES SALMONELLA TYPHIMURIUM, Strain/Indicator: TA102, Metabolic Activation: RAT, LIVER, S-9, PCB, Method: PREINCUBATION (5 OR 7 HR GROWTH PERIOD FOR BACTERIA) inactive; negative | Test System: AMES SALMONELLA TYPHIMURIUM, Strain/Indicator: TA102, Metabolic Activation: RAT, LIVER, S-9, PHENOBARBITAL AND 5,6-BENZOFLAVONE, Method: PREINCUBATION inactive; negative | Test System: AMES SALMONELLA TYPHIMURIUM, Strain/Indicator: TA102, Metabolic Activation: RAT, LIVER, S-9, SODIUM PHENOBARBITAL AND 5,6-BENZOFLAVONE, Method: PREINCUBATION inactive; negative | Test System: AMES SALMONELLA TYPHIMURIUM, Strain/Indicator: TA102, Metabolic Activation: S-9, Method: PREINCUBATION inactive; negative | Test System: AMES SALMONELLA TYPHIMURIUM, Strain/Indicator: TA104, Metabolic Activation: NONE, Method: PREINCUBATION inactive; negative | Test System: AMES SALMONELLA TYPHIMURIUM, Strain/Indicator: TA104, Metabolic Activation: RAT, LIVER, S-9, PHENOBARBITAL AND 5,6-BENZOFLAVONE, Method: PREINCUBATION inactive; negative | Test System: AMES SALMONELLA TYPHIMURIUM, Strain/Indicator: TA104, Metabolic Activation: RAT, LIVER, S-9, SODIUM PHENOBARBITAL AND 5,6-BENZOFLAVONE, Method: PREINCUBATION inactive; negative | Test System: AMES SALMONELLA TYPHIMURIUM, Strain/Indicator: TA1535, Metabolic Activation: NONE, Method: PREINCUBATION inactive; negative | Test System: AMES SALMONELLA TYPHIMURIUM, Strain/Indicator: TA1535, Metabolic Activation: RAT, LIVER, S-9, SODIUM PHENOBARBITAL AND 5,6-BENZOFLAVONE, Method: PREINCUBATION inactive; negative | Test System: AMES SALMONELLA TYPHIMURIUM, Strain/Indicator: TA1537, Metabolic Activation: NONE, Method: PREINCUBATION inactive; negative | Test System: AMES SALMONELLA TYPHIMURIUM, Strain/Indicator: TA1537, Metabolic Activation: RAT, LIVER, S-9, SODIUM PHENOBARBITAL AND 5,6-BENZOFLAVONE, Method: PREINCUBATION inactive; negative | Test System: E. COLI, Strain/Indicator: WP2UVRA/PKM101, Metabolic Activation: NONE, Method: PREINCUBATION inactive; negative | Test System: E. COLI, Strain/Indicator: WP2UVRA/PKM101, Metabolic Activation: RAT, LIVER, S-9, SODIUM PHENOBARBITAL AND 5,6-BENZOFLAVONE, Method: PREINCUBATION inactive; negative | Test System: E. COLI, Strain/Indicator: WP2UVRA, Metabolic Activation: NONE, Method: PREINCUBATION inactive; negative | Test System: E. COLI, Strain/Indicator: WP2UVRA, Metabolic Activation: RAT, LIVER, S-9, SODIUM PHENOBARBITAL AND 5,6-BENZOFLAVONE, Method: PREINCUBATION inactive; negative
